From US8148367B2 (Takeda Pharmaceutical Company Limited, priority 2008, dated 2012)

Biological target: T1, Recombinant human renin (Homo sapiens, UniProt P00797)
T1 construct: isolate the active form (residues 67-406); made in house; host or cells: FreeStyle 293-F cells, transient expression of pcDNA3.1(+)/hREN
T1 sequence (P00797 67-406): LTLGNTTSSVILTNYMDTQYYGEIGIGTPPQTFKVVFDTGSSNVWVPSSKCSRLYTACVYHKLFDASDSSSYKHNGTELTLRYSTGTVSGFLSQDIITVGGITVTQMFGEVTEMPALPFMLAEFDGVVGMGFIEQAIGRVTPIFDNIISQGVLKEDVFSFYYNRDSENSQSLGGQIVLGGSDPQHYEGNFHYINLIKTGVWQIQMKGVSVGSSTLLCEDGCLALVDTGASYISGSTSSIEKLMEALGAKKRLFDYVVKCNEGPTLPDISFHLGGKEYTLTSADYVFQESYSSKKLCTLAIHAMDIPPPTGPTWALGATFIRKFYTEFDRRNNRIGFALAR
Assay: In vitro enzymatic activity assay of renin inhibitors (fluorescence, QXL520/HiLyteFluo488 peptide substrate)
Type: biochemical
Details: recombinant human renin 3 nM, 1 μM substrate, pre-incubated 10 minutes at 37° C., incubation one hour, pH 7.4, 5% DMSO; read-out: IC50 of Exemplified Compounds Against Renin

COCCCOc1cccc(-n2c(-c3ccccc3)c(C(=O)N3CCNCC3)n(CCNC(=O)CC(C)C)c2=O)c1 [Example 184, N-(2-(3-(3-(3-Methoxypropoxy)phenyl)-2-oxo-4-phenyl-5-(piperazine-1-carbonyl)-2,3-dihydro-1H-imidazol-1-yl)ethyl)-3-methylbutanamide]
IC50: > 1000 nM

COc1ccccc1C(=O)NCCn1c(C(=O)N2CCNCC2)c(-c2ccccc2)n(-c2ccccc2C)c1=O [Example 234, 2-Methoxy-N-(2-(2-oxo-4-phenyl-5-(piperazine-1-carbonyl)-3-o-tolyl-2,3-dihydro-1H-imidazol-1-yl)ethyl)benzamide]
IC50: 500 to 1000 nM

Cc1ccccc1-n1c(-c2ccccc2)c(C(=O)N2CCNCC2)n(CCNC(=O)c2ccccc2F)c1=O [Example 230, 2-Fluoro-N-(2-(2-oxo-4-phenyl-5-(piperazine-1-carbonyl)-3-o-tolyl-2,3-dihydro-1H-imidazol-1-yl)ethyl)benzamide]
IC50: > 1000 nM

Cc1ccccc1S(=O)(=O)NCCCn1c(C(=O)N2CCNCC2)c(-c2ccccc2)n(-c2cccc(N3CCOCC3)c2)c1=O [Example 197, 2-Methyl-N-(3-(3-(3-morpholinophenyl)-2-oxo-4-phenyl-5-(piperazine-1-carbonyl)-2,3-dihydro-1H-imidazol-1-yl)propyl)benzenesulfonamide]
IC50: > 1000 nM

O=C(c1c(-c2ccccc2)n(-c2ccccc2)c(=O)n1CC1CCOCC1)N1CCNCC1 [Example 53, 1,5-Diphenyl-4-(piperazine-1-carbonyl)-3-((tetrahydro-2H-pyran-4-yl)methyl)-1H-imidazol-2(3H)-one]
IC50: > 1000 nM

O=C(c1c(-c2ccccc2)n(-c2cccc(N3CCOCC3)c2)c(=O)n1Cc1cccc(-n2cccc2)c1)N1CCNCC1 [Example 77, 1-(3-(1H-Pyrrol-1-yl)benzyl)-3-(3-morpholinophenyl)-4-phenyl-5-(piperazine-1-carbonyl)-1H-imidazol-2(3H)-one]
IC50: < 100 nM

C=CCn1c(C(=O)N2CCNCC2)c(-c2ccccc2)n(-c2ccccc2C)c1=O [Example 141, 1-Allyl-4-phenyl-5-(piperazine-1-carbonyl)-3-o-tolyl-1H-imidazol-2(3H)-one]
IC50: > 1000 nM

Cc1ccccc1-n1c(-c2ccccc2)c(C(=O)N2CCNCC2)n(CCCNC(=O)NC(C)C)c1=O [Example 227, 1-Isopropyl-3-(3-(2-oxo-4-phenyl-5-(piperazine-1-carbonyl)-3-o-tolyl-2,3-dihydro-1H-imidazol-1-yl)propyl)urea]
IC50: > 1000 nM

O=C(c1[nH]c(=O)n(-c2ccccc2)c1-c1ccc(Cl)cc1)N1CCNCC1 [Example 28, 5-(4-Chlorophenyl)-1-phenyl-4-(piperazine-1-carbonyl)-1H-imidazol-2(3H)-one]
IC50: > 1000 nM

CC(=O)Nc1ccccc1-n1c(-c2ccccc2)c(C(=O)N2CCNC[C@H]2Cc2ccccc2)[nH]c1=O [Example 122, (R)—N-(2-(4-(2-Benzylpiperazine-1-carbonyl)-2-oxo-5-phenyl-2,3-dihydro-1H-imidazol-1-yl)phenyl)acetamide]
IC50: < 100 nM

O=C(c1[nH]c(=O)n(-c2cccc(N3CCOCC3)c2)c1-c1ccccc1)N1CCNCC1 [Example 22, 1-(3-Morpholinophenyl)-5-phenyl-4-(piperazine-1-carbonyl)-1H-imidazol-2(3H)-one]
IC50: 500 to 1000 nM

COCCCOc1cccc(-n2c(-c3ccccc3)c(C(=O)N3CCNCC3)n(Cc3ccc(F)c(F)c3)c2=O)c1 [Example 164, 1-(3,4-Difluorobenzyl)-3-(3-(3-methoxypropoxy)phenyl)-4-phenyl-5-(piperazine-1-carbonyl)-1H-imidazol-2(3H)-one]
IC50: 500 to 1000 nM

O=C(c1cccc(Cn2c(C(=O)N3CCNCC3)c(-c3ccccc3)n(-c3cccc(N4CCOCC4)c3)c2=O)c1)N1CCOCC1 [Example 57, 1-(3-(Morpholine-4-carbonyl)benzyl)-3-(3-morpholinophenyl)-4-phenyl-5-(piperazine-1-carbonyl)-1H-imidazol-2(3H)-one]
IC50: > 1000 nM

COC(=O)NCCn1c(C(=O)N2CCNCC2)c(-c2ccccc2)n(-c2ccccc2C)c1=O [Example 249, Methyl 2-(2-oxo-4-phenyl-5-(piperazine-1-carbonyl)-3-o-tolyl-2,3-dihydro-1H-imidazol-1-yl)ethylcarbamate]
IC50: > 1000 nM

O=C(c1c(-c2ccccc2)n(-c2ccccc2)c(=O)n1Cc1ccc(F)c(F)c1)N1CCNCC1 [Example 52, 1-(3,4-Difluorobenzyl)-3,4-diphenyl-5-(piperazine-1-carbonyl)-1H-imidazol-2(3H)-one]
IC50: 100 to 500 nM

CCN(CC)c1cc(Cn2c(C(=O)N3CCNCC3)c(-c3ccccc3)n(C3CCCCC3)c2=O)cc(-c2ccc(OC)nc2)n1 [Example 17J, 1-cyclohexyl-3-((6-(diethylamino)-6′-methoxy-2,3′-bipyridin-4-yl)methyl)-5-phenyl-4-(piperazine-1-carbonyl)-1H-imidazol-2(3H)-one]
IC50: 100 to 500 nM

COCCOc1cccc(Cn2c(C(=O)N3CCNCC3)c(-c3ccccc3)n(-c3ccccc3C)c2=O)c1 [Example 27, 1-(3-(2-methoxyethoxy)benzyl)-4-phenyl-5-(piperazine-1-carbonyl)-3-o-tolyl-1H-imidazol-2(3H)-one]
IC50: 100 to 500 nM

Cc1ccccc1-n1c(-c2ccccc2)c(C(=O)N2CCNCC2)n(CCCNS(=O)(=O)c2ccc(Cl)cc2)c1=O [Example 219, 4-Chloro-N-(3-(2-oxo-4-phenyl-5-(piperazine-1-carbonyl)-3-o-tolyl-2,3-dihydro-1H-imidazol-1-yl)propyl)benzenesulfonamide]
IC50: 100 to 500 nM

Cc1ccccc1-n1c(-c2ccccc2)c(C(=O)N2CCNCC2)n(CCCNC(=O)c2ccccc2F)c1=O [Example 240, 2-Fluoro-N-(3-(2-oxo-4-phenyl-5-(piperazine-1-carbonyl)-3-o-tolyl-2,3-dihydro-1H-imidazol-1-yl)propyl)benzamide]
IC50: > 1000 nM

O=C(c1cccc(Cn2c(C(=O)N3CCNCC3)c(-c3ccccc3)n(-c3cccc(N4CCOCC4)c3)c2=O)c1)N1CCCCC1 [Example 58, 1-(3-Morpholinophenyl)-5-phenyl-4-(piperazine-1-carbonyl)-3-(3-(piperidine-1-carbonyl)benzyl)-1H-imidazol-2(3H)-one]
IC50: > 1000 nM

O=C(c1c(-c2ccccc2)n(-c2cccc(N3CCOCC3)c2)c(=O)n1Cc1cccc(Oc2ccccc2)c1)N1CCNCC1 [Example 74, 1-(3-Morpholinophenyl)-3-(3-phenoxybenzyl)-5-phenyl-4-(piperazine-1-carbonyl)-1H-imidazol-2(3H)-one]
IC50: < 100 nM

C=CCn1c(C(=O)N2CCNCC2)c(-c2ccccc2)n(C2CCCCC2)c1=O [Example 62, 1-Allyl-3-cyclohexyl-4-phenyl-5-(piperazine-1-carbonyl)-1H-imidazol-2(3H)-one]
IC50: > 1000 nM

O=C(c1c(-c2ccccc2)n(-c2cccc(N3CCOCC3)c2)c(=O)n1CCCNS(=O)(=O)c1ccccc1Cl)N1CCNCC1 [Example 194, 2-Chloro-N-(3-(3-(3-morpholinophenyl)-2-oxo-4-phenyl-5-(piperazine-1-carbonyl)-2,3-dihydro-1H-imidazol-1-yl)propyl)benzenesulfonamide]
IC50: < 100 nM

COc1ccccc1-n1c(-c2ccccc2)c(C(=O)N2CCNCC2)n(CCCNC(=O)CC(C)C)c1=O [Example 167, N-(3-(3-(2-Methoxyphenyl)-2-oxo-4-phenyl-5-(piperazine-1-carbonyl)-2,3-dihydro-1H-imidazol-1-yl)propyl)-3-methylbutanamide]
IC50: > 1000 nM

O=C(c1[nH]c(=O)n(-c2ccc3c(c2)NCC3)c1-c1ccccc1)N1CCNC[C@H]1Cc1ccccc1 [Example 136, (R)-4-(2-Benzylpiperazine-1-carbonyl)-1-(indolin-6-yl)-5-phenyl-1H-imidazol-2(3H)-one]
IC50: < 100 nM

COCCCOc1cccc(-n2c(-c3ccccc3)c(C(=O)N3CCNCC3)[nH]c2=O)c1 [Example 35, 1-(3-(3-Methoxypropoxy)phenyl)-5-phenyl-4-(piperazine-1-carbonyl)-1H-imidazol-2(3H)-one]
IC50: 500 to 1000 nM

COc1ccccc1NC(=O)NCCCn1c(C(=O)N2CCNCC2)c(-c2ccccc2)n(-c2ccccc2C)c1=O [Example 225, 1-(2-Methoxyphenyl)-3-(3-(2-oxo-4-phenyl-5-(piperazine-1-carbonyl)-3-o-tolyl-2,3-dihydro-1H-imidazol-1-yl)propyl)urea]
IC50: 100 to 500 nM

COCCCOc1ccccc1-n1c(-c2ccccc2)c(C(=O)N2CCNCC2)[nH]c1=O [Example 33, 1-(2-(3-Methoxypropoxy)phenyl)-5-phenyl-4-(piperazine-1-carbonyl)-1H-imidazol-2(3H)-one]
IC50: > 1000 nM

COCCCOc1cccc(-n2c(-c3ccccc3)c(C(=O)N3CCNCC3)n(CCNC(=O)c3ccccc3)c2=O)c1 [Example 182, N-(2-(3-(3-(3-Methoxypropoxy)phenyl)-2-oxo-4-phenyl-5-(piperazine-1-carbonyl)-2,3-dihydro-1H-imidazol-1-yl)ethyl)benzamide]
IC50: 100 to 500 nM

O=C(c1[nH]c(=O)n(-c2ccccc2)c1-c1ccccc1Cl)N1CCNCC1 [Example 26, 5-(2-Chlorophenyl)-1-phenyl-4-(piperazine-1-carbonyl)-1H-imidazol-2(3H)-one]
IC50: > 1000 nM

Cc1ccccc1-n1c(-c2ccccc2)c(C(=O)N2CCNCC2)n(CCNS(=O)(=O)c2ccccc2Cl)c1=O [Example 204, 2-Chloro-N-(2-(2-oxo-4-phenyl-5-(piperazine-1-carbonyl)-3-o-tolyl-2,3-dihydro-1H-imidazol-1-yl)ethyl)benzenesulfonamide]
IC50: 500 to 1000 nM
